# In PubChem BioAssay (NCI):
#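 A five-concentration, 48-hour dose response in 96-well plates underlies each endpoint, interpolated linearly between surrounding concentrations. TGI: total growth inhibition.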
# How the values were obtained:
# Experiment in all cases: growth of human tumour cells (NCI), 48 h
# [1] = test system: M14 melanoma
# [2] = test system: HOP-92 NSCLC
# [3] = test system: OVCAR-5 ovarian
# [4] = test system: T-47D breast
# [5] = test system: NCI/ADR-RES ovarian
# [6] = test system: BT-549 breast
# [7] = test system: ACHN renal
# [8] = test system: PC-3 prostate
# [9] = test system: DU-145 prostate
# [10] = test system: MDA-MB-435
# [11] = test system: SF-295 CNS
# [12] = test system: MALME-3M melanoma
# [13] = test system: SF-268 CNS
# [14] = test system: OVCAR-8 ovarian
# [15] = test system: LOX IMVI melanoma
# [16] = test system: UO-31 renal
# [17] = test system: KM12 colon
# [18] = test system: A498 renal
# [19] = test system: EKVX NSCLC
# [20] = test system: 786-0 renal
# [21] = test system: SNB-75 CNS
# [22] = test system: UACC-62 melanoma
# [23] = test system: SK-MEL-2 melanoma
# [24] = test system: MOLT-4 leukemia
# [25] = test system: SK-MEL-28 melanoma
# [26] = test system: SK-OV-3 ovarian
# [27] = test system: NCI-H460 lung
# [28] = test system: TK-10 renal
# [29] = test system: OVCAR-4 ovarian
# [30] = test system: HCT-116 colon
# [31] = test system: MDA-N
# [32] = test system: HCT-15 colon
# [33] = test system: NCI-H23 lung
# [34] = test system: UACC-257 melanoma
# [35] = test system: MDA-MB-231 breast
# [36] = test system: NCI-H226 lung
# [37] = test system: MCF7 breast
# [38] = test system: OVCAR-3 ovarian
# [39] = test system: SNB-19 CNS
# [40] = test system: HCC-2998 colon
# [41] = test system: RXF 393 renal
# [42] = test system: K-562 leukemia
# [43] = test system: IGROV1 ovarian
# [44] = test system: A549 NSCLC
# [45] = test system: SN12C renal
# [46] = test system: HS 578T breast
# [47] = test system: RPMI-8226 leukemia
# [48] = test system: SK-MEL-5 melanoma
# [49] = test system: HT29 colon
# [50] = test system: HOP-62 NSCLC
# [51] = test system: CAKI-1 renal
# [52] = test system: CCRF-CEM leukemia
# [53] = test system: COLO 205 colon
# [54] = test system: SF-539 CNS
# [55] = test system: SW-620 colon
# [56] = test system: U251 CNS
# [57] = test system: HL-60(TB) leukemia
smiles,measurement,setting,value
N#CC(C#N)=C(N)/C(C#N)=C/c1ccc2ccccc2n1,TGI,[1],> 100 µM
same,TGI,[2],> 100 µM
same,TGI,[3],> 100 µM
same,TGI,[4],> 100 µM
same,TGI,[5],> 100 µM
same,TGI,[6],91.1 µM
same,TGI,[7],39.6 µM
same,TGI,[8],79.4 µM
same,TGI,[9],> 100 µM
same,TGI,[10],> 100 µM
same,TGI,[11],59.6 µM
same,TGI,[12],> 100 µM
same,TGI,[13],> 100 µM
same,TGI,[14],> 100 µM
same,TGI,[15],46 µM
same,TGI,[16],30.9 µM
same,TGI,[17],41.5 µM
same,TGI,[18],> 100 µM
same,TGI,[19],> 100 µM
same,TGI,[20],34.2 µM
same,TGI,[21],> 100 µM
same,TGI,[22],45.9 µM
same,TGI,[23],> 100 µM
same,TGI,[24],97.9 µM
same,TGI,[25],43.2 µM
same,TGI,[26],> 100 µM
same,TGI,[27],> 100 µM
same,TGI,[28],> 100 µM
same,TGI,[29],> 100 µM
same,TGI,[30],28.4 µM
same,TGI,[31],> 100 µM
same,TGI,[32],80.1 µM
same,TGI,[33],> 100 µM
same,TGI,[34],> 100 µM
same,TGI,[35],72.5 µM
same,TGI,[36],> 100 µM
same,TGI,[37],> 100 µM
same,TGI,[38],33.4 µM
same,TGI,[39],77.7 µM
same,TGI,[40],> 100 µM
same,TGI,[41],42.1 µM
same,TGI,[42],> 100 µM
same,TGI,[43],38.2 µM
same,TGI,[44],> 100 µM
same,TGI,[45],> 100 µM
same,TGI,[46],65 µM
same,TGI,[47],> 100 µM
same,TGI,[48],51 µM
same,TGI,[49],35.9 µM
same,TGI,[50],33 µM
same,TGI,[51],65.1 µM
same,TGI,[52],> 100 µM
[N-]=[N+]=Nc1c(C=O)c(=O)n(-c2ccccc2)c2ccccc12,TGI,[1],34.1 µM
same,TGI,[2],31.1 µM
same,TGI,[3],> 100 µM
same,TGI,[4],61.4 µM
same,TGI,[5],88.5 µM
same,TGI,[6],> 100 µM
same,TGI,[7],40.7 µM
same,TGI,[53],46.5 µM
same,TGI,[8],43.8 µM
same,TGI,[9],> 100 µM
same,TGI,[10],34.5 µM
same,TGI,[11],> 100 µM
same,TGI,[12],45.3 µM
same,TGI,[13],> 100 µM
same,TGI,[15],31.3 µM
same,TGI,[16],31.9 µM
same,TGI,[17],> 100 µM
same,TGI,[54],> 100 µM
same,TGI,[55],7.53 µM
same,TGI,[18],10.1 µM
same,TGI,[20],35 µM
same,TGI,[21],94.2 µM
same,TGI,[22],28.8 µM
same,TGI,[23],80.5 µM
same,TGI,[24],12.7 µM
same,TGI,[25],35.3 µM
same,TGI,[26],> 100 µM
same,TGI,[27],> 100 µM
same,TGI,[56],> 100 µM
same,TGI,[57],> 100 µM
same,TGI,[28],39.1 µM
same,TGI,[29],37.4 µM
same,TGI,[31],> 100 µM
same,TGI,[32],46.4 µM
same,TGI,[33],38 µM
same,TGI,[34],50.1 µM
same,TGI,[35],> 100 µM
same,TGI,[37],64.2 µM
same,TGI,[38],32.4 µM
same,TGI,[39],> 100 µM
same,TGI,[40],40.1 µM
same,TGI,[41],27.2 µM
same,TGI,[42],21.5 µM
same,TGI,[43],44.8 µM
same,TGI,[44],> 100 µM
same,TGI,[45],> 100 µM
same,TGI,[46],79.1 µM
same,TGI,[48],27.5 µM
same,TGI,[49],55.1 µM
same,TGI,[50],> 100 µM
same,TGI,[51],27.7 µM
same,TGI,[52],18.9 µM
